Data set [1] deals with Mouse Liver. Particulars: mouse chronic study, liver, coded 6 / Inf, ref ToxRefDB, cited from earlier work.
In data set [2] the test system is Mouse Liver. The following applies: mouse chronic study, liver, coded 6 / Inf, ref ToxRefDB, cited from earlier work. This is another data set of the same source.
For data set [3], the system named is Mouse Liver. The following applies: mouse chronic study, liver, coded 6 / Inf, ref ToxRefDB, cited from earlier work. The source holds these as a separate data set.
Data set [4] has as its target T1, PXR (NR1I2) (Homo sapiens, UniProt O75469).
T1 sequence (O75469 1-434): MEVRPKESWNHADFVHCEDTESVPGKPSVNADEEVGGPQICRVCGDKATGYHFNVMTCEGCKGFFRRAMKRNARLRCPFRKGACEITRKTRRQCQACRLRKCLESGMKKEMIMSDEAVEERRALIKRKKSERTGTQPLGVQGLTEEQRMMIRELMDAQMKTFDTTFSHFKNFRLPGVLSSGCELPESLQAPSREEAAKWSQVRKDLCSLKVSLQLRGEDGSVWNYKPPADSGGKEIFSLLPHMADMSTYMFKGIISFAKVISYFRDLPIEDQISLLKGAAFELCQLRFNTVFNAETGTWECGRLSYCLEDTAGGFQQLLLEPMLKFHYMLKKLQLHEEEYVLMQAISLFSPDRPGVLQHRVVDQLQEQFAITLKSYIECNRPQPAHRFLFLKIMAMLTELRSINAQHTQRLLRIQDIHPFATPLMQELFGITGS
The data set is described as follows: ATG_PXR_TRANS: Factorial reporter gene assay (HepG2). On the set-up: endogenous in cells; host or cells: HepG2. In kind it is cell-based. The following applies: HepG2. Here is the method:
(§1) A multiple reporter transcription unit (MRTU) library consisting of 48 transcription factor binding sites was transfected into the HepG2 human liver hepatoma cell line. In addition to the cis-acting reporter genes (CIS), a modification of the approach was used to generate a trans-system (TRANS) with a mammalian one-hybrid assay consisting of an additional 25 MRTU library reporting the activity of nuclear receptor super-family members. […] These assays were performed by Attagene Inc. (Morrisville NC) under contract to EPA.
(§2) In addition to the cis-acting reporter genes (CIS), a modification of the approach was used to generate a trans-system (TRANS) with a mammalian one-hybrid assay consisting of an additional 25 MRTU library reporting the activity of nuclear receptor super-family members. […] Chemicals were then tested in the CIS and TRANS assays at seven concentrations starting at the MTC and followed by three-fold serial dilutions. These assays were performed by Attagene Inc. (Morrisville NC) under contract to EPA. Detailed description of the methods, data and analysis methods for this dataset will be presented in a separate publication.

Data set [5] concerns the target T1, PXR (NR1I2). The data set is described as follows: ATG_PXRE_CIS: Factorial reporter gene assay (HepG2). In kind it is cell-based. On the set-up: endogenous in cells; host or cells: HepG2. The following applies: HepG2. How it is done: as §1, §2
A further data set relates to CYP2B6. The data set is described as follows: CLZD_CYP2B6: Change in expression of CYP2B6 (primary human hepatocytes). In kind it is cell-based. The following applies: 24 hr. How it is done:
(§3) This is a collection of multiplexed gene expression assays focused on Phase I and II xenobiotic metabolizing enzymes and transporters. Human primary cell cultures were treated with chemicals at 5 concentrations (0.004-40 [drawing 42] M) for 6, 24 and 48 hr. Concentration- and time-response profiles of chemicals were measured by the expression of key nuclear receptor target genes, activities of CYP1A enzymes (EROD), and cell morphology. Fourteen gene targets were monitored by quantitative nuclease protection assay including: six representative cytochrome P-450 genes, four hepatic transporters, three Phase II conjugating enzymes, and one endogenous metabolism gene involved in cholesterol synthesis. The target genes associated with nuclear receptor pathways are as follows: [drawing 43] and [drawing 44] with [drawing 45]; [drawing 46] , [drawing 47] , [drawing 48] , [drawing 49] , [drawing 50] and [drawing 51] with [drawing 52]; [drawing 53] , [drawing 54] , [drawing 55] and [drawing 56] with [drawing 57]; [drawing 58] with [drawing 59]; and [drawing 60] with [drawing 61] . Assays were run in primary human hepatocyte cultures by CellzDirect Invitrogen Inc. (Durham, NC), in collaboration with EPA.
(§4) Multiplexed Gene Expression in Human Primary Hepatocytes: This is a collection of multiplexed gene expression assays focused on Phase I and II metabolic enzymes and transporters. […] Fourteen gene targets were monitored by quantitative nuclease protection assay: six representative cytochrome P450 genes, four hepatic transporters, three Phase II conjugating enzymes, and one endogenous metabolism gene involved in cholesterol synthesis. Cells were exposed at 5 concentrations (0.004-40 µM) for 6, 24 or 48 hr. Gene targets are sentinels for five nuclear receptor signaling pathways: AhR, CAR, PXR, FXR, and PPARα. All gene are associated with nuclear receptor pathways: CYP1A1 and CYP1A2 with AHR; ABCB1, ABCG2, CYP2B6, CYP2C9, CYP2C19 and UGT1A1 with CAR; CYP3A4, GSTA2, SLCO1B1 and SULT2A1 with PXR; HMGCS2 with PPARA; and ABCB11 with FXR. […] Detailed description of the methods, data and analysis methods for this dataset will be presented in a separate publication.

The test system of data set [6] is Rat Liver. Particulars: rat, chronic study, ref ToxRefDB; cited from earlier work.
Data set [7] has as its target T1, PXR (NR1I2). The data set is described as follows: NVS_NR_hPXR: Human PXR Fluormone PXR (SXR) green (cell-free HTS). In kind it is binding. The source says:
These are a collection of biochemical assays measuring binding constants and enzyme inhibition values. Chemicals were initially screened at a single concentration in duplicate wells at a concentration of 10 [drawing 63] M for cytochrome P-450 assays and 25 [drawing 64] M for all others. […] These assays were run by Caliper Life Sciences (Hanover, MD) under contract to EPA. Short assay descriptions are available at: http://www.caliperls.com/products/contract-research/in-vitro/.
Cell-free HTS Assays: A collection of biochemical assays measuring binding constants and enzyme inhibition values. […] These assays were run by Caliper Life Sciences (Hanover, MD) under contract to EPA. Short assay descriptions are available at http://www.caliperls.com/products/contract-research/in-vitro/. Values for all endpoints were imported into GeneData Screener (Basel, Switzerland) and normalised to solvent controls from the same plate as the tested compounds and expressed as percent of neutral control. Concentration-response curves were fit in GeneData Screener (Basel, Switzerland) Condeseo module using the Hill equation and AC50 values were determined. […] Detailed description of the methods, data and analysis methods for this dataset are described in a separate publication.

The test system of the next data set is CYP1A1. The data set is described as follows: CLZD_CYP1A1: Change in expression of CYP1A1 (primary human hepatocytes). In kind it is cell-based. Particulars: 24 hr. Here is the method: as §3, §4
Data set [8] concerns the target T2, PPARG (peroxisome proliferator-activated receptor gamma) (Homo sapiens, UniProt P37231).
T2 construct: expressed in transfected cells; host or cells: HepG2
T2 sequence (P37231 1-505): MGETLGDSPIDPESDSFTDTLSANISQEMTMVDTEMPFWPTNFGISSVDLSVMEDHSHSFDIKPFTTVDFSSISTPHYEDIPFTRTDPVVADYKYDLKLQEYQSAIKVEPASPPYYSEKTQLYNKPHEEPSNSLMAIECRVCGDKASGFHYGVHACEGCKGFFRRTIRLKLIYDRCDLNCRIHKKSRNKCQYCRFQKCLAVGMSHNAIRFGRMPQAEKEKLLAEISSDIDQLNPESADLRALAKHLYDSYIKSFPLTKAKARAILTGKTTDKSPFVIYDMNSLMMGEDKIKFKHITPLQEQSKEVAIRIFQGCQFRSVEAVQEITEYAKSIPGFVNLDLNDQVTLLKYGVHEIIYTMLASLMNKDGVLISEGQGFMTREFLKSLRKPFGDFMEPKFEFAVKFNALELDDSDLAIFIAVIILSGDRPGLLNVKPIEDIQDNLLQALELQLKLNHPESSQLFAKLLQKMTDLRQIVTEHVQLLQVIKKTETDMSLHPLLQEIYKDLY
The data set is described as follows: ATG_PPARg_TRANS: Factorial reporter gene assay (HepG2). In kind it is cell-based. Particulars: HepG2. Here is the method:
as §1, §2

For data set [9], the system named is Rat Liver. Particulars: rat, chronic study, ref ToxRefDB; cited from earlier work. The source holds these as a separate data set.
The test system of data set [10] is Rat Liver. Particulars: rat, chronic study, ref ToxRefDB; cited from earlier work. This is another data set of the same source.
The mark [11] stands for this setting: neoplastic lesion, code not explained in the table.
Setting [12] is: preneoplastic lesion, code not explained in the table.
Setting [13] is: any lesion, code not explained in the table.

Where two headings read alike, the source gives them in different places.

Turning to `Oc1ccccc1-c1ccccc1` [Dataset S3 row 5], in the data set on Mouse Liver [1] (setting [11]), the CHR_Mouse_Liver_3_NeoplasticLesion is on record as 6. For the same molecule, in the data set on Mouse Liver [2] (setting [12]), the CHR_Mouse_Liver_2_PreneoplasticLesion is given as 6. Further, the CHR_Mouse_Liver_1_AnyLesion in the data set on Mouse Liver [3] (setting [13]) is listed as 6.

In the case of `CCCCN(CC)c1c([N+](=O)[O-])cc(C(F)(F)F)cc1[N+](=O)[O-]` [Dataset S3 row 26], the CHR_Mouse_Liver_3_NeoplasticLesion in the data set with Mouse Liver [1] (setting [11]) is reported as 6. For the same molecule, the CHR_Mouse_Liver_2_PreneoplasticLesion in the data set on Mouse Liver [2] (setting [12]) is on record as 6. Also, in the data set with Mouse Liver [3] (setting [13]), the CHR_Mouse_Liver_1_AnyLesion is on record as 6.

Take `CCCCNC(=O)n1c(NC(=O)OC)nc2ccccc21` [Dataset S3 row 27]: in the data set on Mouse Liver [1] (setting [11]), the CHR_Mouse_Liver_3_NeoplasticLesion is recorded as 6. Further, the CHR_Mouse_Liver_2_PreneoplasticLesion in the data set with Mouse Liver [2] (setting [12]) is given as 6. Also, in the data set on Mouse Liver [3] (setting [13]), the CHR_Mouse_Liver_1_AnyLesion was 6.

`COC(=O)NC(=S)Nc1ccccc1NC(=S)NC(=O)OC` [chemical 301]: the CHR_Mouse_Liver_3_NeoplasticLesion with Mouse Liver [1] (code not explained in table) is 6. Further, the CHR_Mouse_Liver_2_PreneoplasticLesion in the data set on Mouse Liver [2] (code not explained in table) is reported as 6. For the same molecule, the CHR_Mouse_Liver_1_AnyLesion in the data set on Mouse Liver [3] (code not explained in table) is reported as 6.

For the molecule `CCC(CC)Nc1c([N+](=O)[O-])cc(C)c(C)c1[N+](=O)[O-]` [r238], on PXR (NR1I2) [4], the ATG_PXR_TRANS is 4.432. For the same molecule, the ATG_PXRE_CIS at PXR (NR1I2) [5] stood at 4.959. The CLZD_CYP2B6_24 in the data set on CYP2B6 is given as 4.988. In addition, in the data set with Rat Liver [6], the CHR_Rat_Liver_3_NeoplasticLesion is given as 0. The molecule also registered an NVS_NR_hPXR on PXR (NR1I2) [7] of 5.143. This molecule also returned a CLZD_CYP1A1_24 in the data set on CYP1A1 of 5.24. In data set [8], this molecule gave an ATG_PPARg_TRANS of 4.167. For the same molecule, the CHR_Rat_Liver_2_PreneoplasticLesion in the data set on Rat Liver [9] was 6. Further, in the data set on Rat Liver [10], the CHR_Rat_Liver_1_AnyLesion is listed as 6.

The record behind these values is article PMC3038857, “Using Nuclear Receptor Activity to Stratify Hepatocarcinogens” (PLoS ONE, 2011).
